Measured values from patent publication US10981932B2, “Macrocyclic indole derivatives” (Bayer Aktiengesellschaft, priority 2016, dated 2021).
Structures can show the parent of a compound that is named as a salt. Where two headings read alike, the source gives them in different places.

Experiments:
SUDHL10 [1] = assay: Induction of caspase-3/7 activity (Caspase-Glo 3/7), SUDHL10; assay type: cell-based; details: caspase-3/7 induction, SUDHL10 cells, 3 h treatment, median
Protocol: (§1) Induction of Caspase-317 Activity Upon Treatment of Cells with Selected Compounds
(§2) The BH3-domain of MCL-1 sequesters pro-apoptotic proteins, thereby inhibiting apoptosis. In contrast, MCL-1 inhibitors are expected to antagonize this effect leading to an increase in apoptosis, which can be determined by measuring the activity of caspase-3/7.
(§3) The activity of caspase-3/7 was determined in DLBCL (Diffuse large B-cell lymphoma) cell lines (SUDHL5 and SUDHL10) upon treatment with different compounds, using the Caspase-Glo® 3/7 reagent from Promega (G8092).
(§4) Rim wells were excluded. The cells were incubated for 3 h hours in a humidified incubator at 37° C.
(§5) For the evaluation of the results, the background measured with “medium-only” was subtracted from all other values. […] The Bella DRC Master Sheet was used to calculate EC50s, with fixed C0=1 and CI=plateaulmax induction for the reference compound.

MCL-1 = MCL-1 (Homo sapiens, UniProt Q07820); assay: Protein-protein interaction assay MCL-1/Noxa BH3 peptide (MCL-1 assay), TR-FRET; assay type: binding; details: MBP-MCL-1 / Noxa BH3-derived peptide, median
Protocol: Protein-Protein Interaction Assay: MCL-1/Noxa BH3 Peptide (MCL-1 Assay) […]
In the assay 11 different concentrations of each compound (0.1 nM, 0.33 nM, 1.1 nM, 3.8 nM, 13 nM, 44 nM, 0.15 μM, 0.51 μM, 1.7 μM, 5.9 μM and 20 μM) were typically measured as duplicates in the same microtiter plate. For that, 100-fold concentrated DMSO solutions were prepared by serial dilutions (1:3.4) of a 2 mM stock solution in a clear, 384-well microtiter plate (Greiner Bio-One, Frickenhausen, Germany). From there, 50 ni were transferred in a dark test plate (Greiner Bio-One, Frickenhausen, Germany). The assay was initiated by addition of 2 μl of a 2.5-fold concentrated MBP-MCL-1 solution (usually for a 1 nM end concentration in 5 μl reaction volume) in aqueous assay buffer [50 mM Tris/HCl pH 7, 100 mM sodium chloride (NaCl), 50 mM potassium fluoride (KF), 0.005% Tween-20, 2 mM DTT, 0.1% bovine gamma globulin (BGG)] to the compounds in the assay plate. This was followed by a 10-minute incubation step at 22° C. for pre-equilibration of the putative complex between MBP-MCL-1 and the compounds. After that.
The mixture was incubated in the dark for one hour at 22° C. and then overnight at 4° C. The formation of MCL-1/Noxa complexes was determined by measuring the resonance energy transfer of the anti-MBP- Eu-cryptate antibody to the streptavidin-XL665 present in the reaction. For that purpose, the fluorescence emission at 620 nm and 665 nm after excitation at 330-350 nm was measured in a TR-FRET measuring instrument, for instance a Rubystar or a Pherastar (both from BMG Lab Technologies, Offenburg, Germany) or a Viewlux (Perkin-Elmer). The ratio of the emission at 665 nm and at 622 nm was used as indicator of the amount of MCL-1/NOXA complexes present.
The resulting data (ratio) were normalized, taking 0% inhibition as the mean value of control measurements (usually 32 data points) where all reagents were included. In this case 50 nl DMSO were used instead of compounds. A 100% inhibition corresponded to the mean value of control measurements (usually 32 data points) where all reagents except MCL-1 were included. IC50 values were determined by regression analysis based on a 4 parameter equation (minimum, maximum, IC50, Hill; Y=Max+(Min−Max)/(1+(X/IC50)^Hill) using the Screener Software (Genedata).

A2780 = assay: Anti-proliferative effect (CellTiter-Glo, 72 h), A2780; assay type: cell-based; details: A2780 cells, median, read-out: IC50 antiproliferation assay A2780 [M] (median)
Protocol: (§6) Assessment of the Anti-Proliferative Effect of Compounds in Different Cell Lines
(§7) The impact of compounds on the proliferation of different cell lines was assessed using the CellTiter-Glo® Luminescent Cell Viability reagent from Promega (G7573). Of note, SUDHL10 and SUDHL5 (DLBCL), NCI-H929 (Multiple Myeloma), A2780 (ovarian carcinoma) as well as MV-4-11(AML) cells are sensitive to MCL-1 inhibition.
(§8) In parallel, cells were plated in a reference (day 0) plate for time zero determination.
(§9) Rim wells were excluded. The cells were incubated for 72 h hours in a humidified incubator at 37° C. The day 0 plate was measured by adding 30 μl/well of CTG solution (CellTiter-Glo® Luminescent Cell Viability reagent, Promega G7573) to time zero wells in the reference plate followed by a 10 minutes incubation and luminescence reading at 0.1 ms, using the PHERAstar FS microplate reader (BMG Labtech).
(§10) After 72 h incubation, the treated plates were measured in the same way as the day 0 plate mentioned above.

SUDHL5 [2] = assay: Anti-proliferative effect (CellTiter-Glo, 72 h), SUDHL5; assay type: cell-based; details: SUDHL5 cells, antiproliferation, 72 h incubation, median, read-out: Antiproli SUDHL5 [M] (median)
Protocol: as §6, §7, §8, §9, §10

SUDHL5 [3] = assay: Induction of caspase-3/7 activity (Caspase-Glo 3/7), SUDHL5; assay type: cell-based; details: caspase-3/7 induction, SUDHL5 cells, 3 h treatment, median
Protocol: as §1, §2, §3, §4, §5

SUDHL5 [4] = assay: Induction of cytotoxicity (CellTiter-Glo, 5 h), SUDHL5
SUDHL10 [5] = assay: Induction of cytotoxicity (CellTiter-Glo, 5 h), SUDHL10
Protocol: Therefore, cytotoxicity assays were run in parallel in SUDHL5 and SUDHL10 cells.
The different cell lines were plated in culture medium (RPMI 1640 [GIBCO #22400-089]supplemented with 10% Fetal Bovine Serum) at a density of 3.300 cells in 30 μl/well in a sterile, solid black, flat bottom, polystyrene, TC-treated 384-well microplate (Corning #3571) using Multidrop Combi Reagent Dispenser. As a control, medium without cells was also added to the plate. Cells were incubated in a humidified incubator at 37° C. overnight. On the next day, the cells were treated with compounds (stock solution, 10 mM in DMSO) using the HP D300 Digital Dispenser in a concentration range of 3.3×10e-5 M (33 μM) to 5×10e-9 M (5 nM) in a single-dot curve with at least 16 dilutions and a DMSO concentration of 0.33%. Rim wells were excluded. The cells were incubated for 5 h hours in a humidified incubator at 37° C. After this incubation, 30 μl of CellTiter-Glo@ Luminescent Cell Viability reagent (Promega, G7573) was added to each well using the Multidrop Combi Reagent Dispenser, followed by 15 min incubation on a shaker at room temperature. Finally, luminescence was read at 0.1 ms, with a gain of 3000 using the PHERAstar FS microplate reader (BMG Labtech).
The Bella DRC Master Sheet was used to calculate IC50s, with fixed CI=0 and C0=1.

[6] = read-out: Cytotox SUDHL5 [M] (median), SUDHL5 cells, cytotoxicity induction, CellTiter-Glo, 5 h incubation, median
[7] = read-out: Cytotox SUDHL10 [M] (median), SUDHL10 cells, cytotoxicity induction, CellTiter-Glo, 5 h incubation, median
[8] = Homo sapiens, SU-DHL-5, 5 h, read-out: Cytotox SUDHL5 [M] (median), SUDHL5 cells, cytotoxicity induction, CellTiter-Glo, 5 h incubation, median
[9] = Homo sapiens, SU-DHL10, 5 h, read-out: Cytotox SUDHL10 [M] (median), SUDHL10 cells, cytotoxicity induction, CellTiter-Glo, 5 h incubation, median

Sequence of MCL-1 (Q07820 whole entry): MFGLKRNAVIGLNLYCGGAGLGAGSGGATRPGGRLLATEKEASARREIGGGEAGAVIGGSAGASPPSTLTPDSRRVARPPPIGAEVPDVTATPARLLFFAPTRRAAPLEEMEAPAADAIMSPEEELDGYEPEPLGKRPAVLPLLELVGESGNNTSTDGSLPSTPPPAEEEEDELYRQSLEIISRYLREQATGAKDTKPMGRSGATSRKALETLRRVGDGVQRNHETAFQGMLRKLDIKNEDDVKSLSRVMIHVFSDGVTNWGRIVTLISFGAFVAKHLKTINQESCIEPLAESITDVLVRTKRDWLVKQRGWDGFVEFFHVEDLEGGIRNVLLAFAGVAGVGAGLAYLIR

Structure (SMILES) | EC50 (SUDHL10 [1]) | IC50 (MCL-1) | IC50 (A2780) | IC50 (SUDHL5 [2]) | EC50 (SUDHL5 [3]) | IC50 (SUDHL5 [4]; [6]) | IC50 (SUDHL10 [5]; [7]) | EC50 (SUDHL10 [1]; Homo sapiens, SU-DHL10, 3 h) | IC50 (A2780; Homo sapiens, A2780, 72 h) | IC50 (SUDHL5 [2]; Homo sapiens, SU-DHL-5, 72 h) | EC50 (SUDHL5 [3]; Homo sapiens, SU-DHL-5, 3 h) | IC50 (SUDHL5 [4]; [8]) | IC50 (SUDHL10 [5]; [9])
Cc1c2c(nn1C)COCCCn1c(C(=O)O)c(CCCOc3cccc4ccccc34)c3cccc-2c31 (single isomer, unassigned; enantiomer 2) [Example 065, 10,11-dimethyl-1-[3-(naphthalen-1-yloxy)propyl]-5,6,8,10-tetrahydro-4H-pyrazolo[4′,3′:8,9][1,5]oxazecino[7,6,5-hi]indole-2-carboxylic acid-N-ethylethanamine Salt (Enantiomer 2)] | > 33 µM | 0.0393 µM | > 3.3e-05 M | 2.61e-05 M | > 33 µM | > 3.3e-05 M | > 3.3e-05 M |  |  |  |  |  | 
COCCn1nc(C2CC2)c2c1COCCCCn1c(C(=O)O)c(CCCOc3cccc4ccccc34)c3cccc-2c31 (racemic) [Example 102, (rac)-3-Cyclopropyl-1-(2-methoxyethyl)-7-[3-(naphthalen-1-yloxy)propyl]-1,10,11,12,13,15-hexahydropyrazolo[4′,3′:9,10][1,6]oxazacycloundecino[8,7,6-hi]indole-8-carboxylic Acid] |  | 0.00682 µM |  |  |  |  |  | > 33 µM | > 3.3e-05 M | 1.32e-05 M | 8.26 µM | 6.12e-06 M | > 3.3e-05 M
Cn1nc(CCN2CCOCC2)c2c1COCCCCn1c(C(=O)O)c(CCCOc3cccc4ccccc34)c3cccc-2c31 (racemic) [Example 150, (rac)-1-methyl-3-[2-(morpholin-4-yl)ethyl]-7-[3-(naphthalen-1-yloxy)propyl]-1,10,11,12,13,15-hexahydropyrazolo[4′,3′:9,10][1,6]oxazacycloundecino[8,7,6-hi]indole-8-carboxylic Acid] |  | 0.00761 µM |  |  |  |  |  | 28 µM | > 3.3e-05 M | 2.11e-05 M | > 33 µM | 2.69e-05 M | > 3.3e-05 M
COCc1nn(C)c2c1-c1cccc3c(CCCOc4cccc5ccccc45)c(C(=O)O)n(c13)CCCCCOC2 (racemic) [Example 177, (rac)-3-(methoxymethyl)-1-methyl-7-[3-(naphthalen-1-yloxy)propyl]-1,11,12,13,14,16-hexahydro-10H-pyrazolo[3′,4′:3,4][1,7]oxazacyclododecino[5,6,7-hi]indole-8-carboxylic Acid] |  | 0.0107 µM |  |  |  |  |  | > 33 µM | > 3.3e-05 M | > 3.3e-05 M | 23.3 µM | 2.14e-05 M | > 3.3e-05 M
Cn1nc(COC2CC2)c2c1COCCCCn1c(C(=O)O)c(CCCOc3cccc4ccccc34)c3cccc-2c31 (single isomer, unassigned) [Example 214, 3-[(cyclopropyloxy)methyl]-1-methyl-7-[3-(naphthalen-1-yloxy)propyl]-1,10,11,12,13,15-hexahydropyrazolo[4′,3′:9,10][1,6]oxazacycloundecino[8,7,6-hi]indole-8-carboxylic Acid] | > 33 µM | 0.00524 µM | > 3.3e-05 M |  | 14.9 µM | 1.14e-05 M |  | 20.7 µM | 2.9e-05 M | 9.08e-06 M |  |  | 
Cn1nc(COc2ccc(C3(O)CCOCC3)cc2)c2c1COCCCCn1c(C(=O)O)c(CCCOc3cccc4ccccc34)c3cccc-2c31 (racemic) [Example 1-61, (rac)-3-{[4-(4-hydroxytetrahydro-2H-pyran-4-yl)phenoxy]methyl}-1-methyl-7-[3-(naphthalen-1-yloxy)propyl]-1,10,11,12,13,15-hexahydropyrazolo[4′,3′:9,10][1,6]oxazacycloundecino[8,7,6-hi]indole-8-carboxylic Acid] |  | 0.00293 µM |  |  |  |  |  | 10.7 µM |  | 5.41e-06 M | 6.16 µM | 1.33e-05 M | 2.11e-05 M
CN(C)S(=O)(=O)N1CCN(c2ccc(OCc3nn(C)c4c3-c3cccc5c(CCCOc6cccc7ccccc67)c(C(=O)O)n(c35)CCCCOC4)cc2)CC1 (single isomer, unassigned; enantiomer 1) [Example 1-19, 3-({4-[4-(dimethylsulfamoyl)piperazin-1-yl]phenoxy}methyl)-1-methyl-7-[3-(naphthalen-1-yloxy)propyl]-1,10,11,12,13,15-hexahydropyrazolo[4′,3′:9,10][1,6]oxazacycloundecino[8,7,6-hi]indole-8-Carboxylic acid (Enantiomer 1)] | 20.6 µM | 0.0527 µM |  | 5.87e-06 M | 17.2 µM | 2.7e-05 M | 2.52e-05 M |  |  |  |  |  | 
COC1(c2ccc(OCc3nn(C)c4c3-c3cccc5c(CCCOc6cccc7ccccc67)c(C(=O)O)n(c35)CCCCOC4)cc2)CCOCC1 (racemic) [Example 1-65, (rac)-3-{[4-(4-methoxytetrahydro-2H-pyran-4-yl)phenoxy]methyl}-1-methyl-7-[3-(naphthalen-1-yloxy)propyl]-1,10,11,12,13,15-hexahydropyrazolo[4′,3′:9,10][1,6]oxazacycloundecino[8,7,6-hi]indole-8-carboxylic Acid] |  | 0.031 µM |  |  |  |  |  | 17.5 µM |  | 3.71e-06 M | 16.3 µM | > 3.3e-05 M | 3.13e-05 M
Cn1nc(CO)c2c1COCCCCn1c(C(=O)O)c(CCCOc3cccc4ccccc34)c3cccc-2c31 (racemic) [Example 1-95, (rac)-3-(hydroxymethyl)-1-methyl-7-[3-(naphthalen-1-yloxy)propyl]-1,10,11,12,13,15-hexahydropyrazolo[4′,3′:9,10][1,6]oxazacycloundecino[8,7,6-hi]indole-8-carboxylic Acid] |  | 0.0039 µM |  |  |  |  |  | 22.7 µM |  | 4.8e-06 M | 10.8 µM | 1.98e-05 M | > 3.3e-05 M
